The text below walks through data of patent US12594276B2, “Inhibitors of human immunodeficiency virus replication” (ViiV Healthcare UK (No.5) Limited, priority 2024, dated 2026).

Data set [1] has as its system recombinant NL4-3 virus (nef section replaced with Renilla luciferase gene) in MT-2 cells. The data set is described as follows: HIV cell culture assay (antiviral activity, luciferase readout). The format is cell-based. The note with it: Renilla, NL43, MT-2 cells infected for 4-5 days with recombinant NL4-3 Renilla luciferase virus. The procedure, abridged: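 Reporter virus is produced in 293T cells and its titer set in MT-2 cells by luciferase activity. MT-2 cells are then infected in the presence of serially diluted compound for 4-5 days. Luciferase is quantified and EC50 fitted to the median effect equation.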

A short description of data set [2]: Compound cytotoxicity, XTT-based colorimetric assay. The note with it: human; uninfected MT2 cells, day 4, XTT; read-out: CC50. In kind it is cell-based. The procedure, abridged:
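CC50 derived from XTT colorimetric signal measured on day 4 in MT2 cells that were not infected. All other steps followed the antiviral assay protocol.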
In general terms: Tetrazolium assays rely on reduction of a dye to a coloured formazan, in cell work by metabolically active cells.

A value given as a limit tells only on which side of the number the result lay.

By EC50 is commonly meant the concentration needed to bring the measured effect to its halfway point. For orientation: CC50 means the concentration that lowers cell viability or growth by half. As for `Cc1cc(C2CCC(F)(F)CC2)nc2nc([C@H](Cc3cc(F)cc(F)c3)NC(=O)Cn3nc(C(F)F)c4c3C(F)(F)[C@@H]3C[C@H]43)n(-c3ccc(Cl)c4c(NS(C)(=O)=O)nn(CCN5CCCCC5)c34)c(=O)c12` (atropisomer, axis not shown; (P)) [Example 269, N-[(1S)-1-[(3P)-3-{4-chloro-3-methanesulfonamido-1-[2-(piperidin-1-yl)ethyl]-1H-indazol-7-yl}-7-(4,4-difluorocyclohexyl)-5-methyl-4-oxo-3H,4H-pyrido[2,3-d]pyrimidin-2-yl]-2-(3,5-difluorophenyl)ethyl]-2-[(2S,4R)-9-(difluoromethyl)-5,5-difluoro-7,8-diazatricyclo[4.3.0.0^2,^4]nona-1(6),8-dien-7-yl]acetamide], the EC50 in data set [1] was 0.018 nM. Further, the CC50 at 4 days in data set [2] was over 50 nM.
Taken in the same sequence, the figures for `C[C@H](O)c1cc(C2CCC(F)(F)CC2)nc2nc([C@H](Cc3cc(F)cc(F)c3)NC(=O)Cn3nc(C(F)F)c4c3C(F)(F)[C@@H]3C[C@H]43)n(-c3ccc(Cl)c4c(NS(C)(=O)=O)nn(CCN5CCC(F)(F)CC5)c34)c(=O)c12` (relative stereo) [Example 698, N-[(1S)-1-[(3P)-3-{4-chloro-1-[2-(4,4-difluoropiperidin-1-yl)ethyl]-3-methanesulfonamido-1H-indazol-7-yl}-7-(4,4-difluorocyclohexyl)-5-[(1R**)-1-hydroxyethyl]-4-oxo-3H,4H-pyrido[2,3-d]pyrimidin-2-yl]-2-(3,5-difluorophenyl)ethyl]-2-[(2R*,4S*)-9-(difluoromethyl)-5,5-difluoro-7,8-diazatricyclo[4.3.0.0^2,4]nona-1(6),8-dien-7-yl]acetamide] were 0.027 nM and over 20 nM.
The corresponding values for `Cc1cc(C2CCC(F)(F)CC2)nc2nc([C@H](Cc3cc(F)cc(F)c3)NC(=O)Cn3nc(C(F)F)c4c3C(F)(F)[C@@H]3C[C@H]43)n(-c3ccc(Cl)c4c(NS(C)(=O)=O)nn(CCN5CCC(C)(F)CC5)c34)c(=O)c12` (atropisomer, axis not shown; (P)) [Example 271, N-[(1S)-1-[(3P)-3-{4-chloro-1-[2-(4-fluoro-4-methylpiperidin-1-yl)ethyl]-3-methanesulfonamido-1H-indazol-7-yl}-7-(4,4-difluorocyclohexyl)-5-methyl-4-oxo-3H,4H-pyrido[2,3-d]pyrimidin-2-yl]-2-(3,5-difluorophenyl)ethyl]-2-[(2S,4R)-9-(difluoromethyl)-5,5-difluoro-7,8-diazatricyclo[4.3.0.0^2,^4]nona-1(6),8-dien-7-yl]acetamide] are 0.015 nM and over 50 nM.
The corresponding values for `COCCN(CCOC)C(=O)Cn1nc(NS(C)(=O)=O)c2c(Cl)ccc(-n3c([C@H](Cc4cc(F)cc(F)c4)NC(=O)Cn4nc(C(F)F)c5c4C(F)(F)[C@@H]4C[C@H]54)nc4nc(C5CCC(F)(F)CC5)cc(C)c4c3=O)c21` (atropisomer, axis not shown; (P)) [Example 401, 2-[(6P)-4-chloro-7-[7-(4,4-difluorocyclohexyl)-2-[(1S)-1-{2-[(2S,4R)-9-(difluoromethyl)-5,5-difluoro-7,8-diazatricyclo[4.3.0.02, 4]nona-1(6),8-dien-7-yl]acetamido}-2-(3,5-difluorophenyl)ethyl]-5-methyl-4-oxo-3H,4H-pyrido[2,3-d]pyrimidin-3-yl]-3-methanesulfonamido-1H-indazol-1-yl]-N,N-bis(2-methoxyethyl)acetamide] are 0.012 nM and over 20 nM.
In the case of `COCCCn1nc(NS(C)(=O)=O)c2c(Cl)ccc(-n3c([C@H](Cc4cc(F)cc(F)c4)NC(=O)Cn4nc(C(F)F)c5c4C(F)(F)[C@@H]4C[C@H]54)nc4nc(C5CCC(F)(F)CC5)cc(NC[C@H]5CCOC5)c4c3=O)c21` (atropisomer, axis not shown; (P)) [Example 567, N-[(1S)-1-[(3P)-3-[4-chloro-3-methanesulfonamido-1-(3-methoxypropyl)-1H-indazol-7-yl]-7-(4,4-difluorocyclohexyl)-4-oxo-5-({[(3R)-oxolan-3-yl]methyl}amino)-3H,4H-pyrido[2,3-d]pyrimidin-2-yl]-2-(3,5-difluorophenyl)ethyl]-2-[(2S,4R)-9-(difluoromethyl)-5,5-difluoro-7,8-diazatricyclo[4.3.0.0^2,^4]nona-1(6),8-dien-7-yl]acetamide], the EC50 in data set [1] was 0.009 nM. Also, the CC50 at 4 days in data set [2] was over 20 nM.
The corresponding values for `Cc1cc(C2(F)CCC(F)(F)CC2)nc2nc([C@H](Cc3cc(F)cc(F)c3)NC(=O)Cn3nc(C(F)F)c4c3C(F)(F)[C@@H]3C[C@H]43)n(-c3ccc(Cl)c4c(NS(C)(=O)=O)nn(CCN5CCO[C@H](C(C)C)C5)c34)c(=O)c12` (atropisomer, axis not shown; (P)) [Example 575, N-[(1S)-1-[(3P)-3-(4-chloro-3-methanesulfonamido-1-{2-[(2R)-2-(propan-2-yl)morpholin-4-yl]ethyl}-1H-indazol-7-yl)-5-methyl-4-oxo-7-(1,4,4-trifluorocyclohexyl)-3H,4H-pyrido[2,3-d]pyrimidin-2-yl]-2-(3,5-difluorophenyl)ethyl]-2-[(2S,4R)-9-(difluoromethyl)-5,5-difluoro-7,8-diazatricyclo[4.3.0.0^2,^4]nona-1(6),8-dien-7-yl]acetamide] are 0.012 nM and over 20 nM.
Taken in the same sequence, the figures for `CO[C@H]1CCN(CCn2nc(NS(C)(=O)=O)c3c(Cl)ccc(-n4c([C@H](Cc5cc(F)cc(F)c5)NC(=O)Cn5nc(C(F)F)c6c5C(F)(F)[C@@H]5C[C@H]65)nc5nc(C6CCC(F)(F)CC6)cc(C(F)F)c5c4=O)c32)C1` (atropisomer, axis not shown; (P)) [Example 257, N-[(1S)-1-[(3P)-3-(4-chloro-3-methanesulfonamido-1-{2-[(3S)-3-methoxypyrrolidin-1-yl]ethyl}-1H-indazol-7-yl)-7-(4,4-difluorocyclohexyl)-5-(difluoromethyl)-4-oxo-3H,4H-pyrido[2,3-d]pyrimidin-2-yl]-2-(3,5-difluorophenyl)ethyl]-2-[(2S,4R)-9-(difluoromethyl)-5,5-difluoro-7,8-diazatricyclo[4.3.0.0^2,^4]nona-1(6),8-dien-7-yl]acetamide] were 0.027 nM and over 50 nM.
Consider `COCCCn1nc(NS(C)(=O)=O)c2c(Cl)ccc(-n3c([C@H](Cc4cc(F)cc(F)c4)NC(=O)Cn4nc(C5CC5)c5c4C[C@@H]4C[C@H]54)nc4nc(C5CCC(F)(F)CC5)cc(CN5C[C@@H](C)O[C@@H](C)C5)c4c3=O)c21` (atropisomer, axis not shown; (P)) [Example 599, N-[(1S)-1-[(3P)-3-[4-chloro-3-methanesulfonamido-1-(3-methoxypropyl)-1H-indazol-7-yl]-7-(4,4-difluorocyclohexyl)-5-{[(2R,6S)-2,6-dimethylmorpholin-4-yl]methyl}-4-oxo-3H,4H-pyrido[2,3-d]pyrimidin-2-yl]-2-(3,5-difluorophenyl)ethyl]-2-[(2S,4S)-9-cyclopropyl-7,8-diazatricyclo[4.3.0.0^2,^4]nona-1(6),8-dien-7-yl]acetamide], for which the EC50 in data set [1] was found to be 0.007 nM. Further, the CC50 at 4 days in data set [2] is over 20 nM.
The corresponding values for `CC1(C)CN(CCn2nc(NS(C)(=O)=O)c3c(Cl)ccc(-n4c([C@H](Cc5cc(F)cc(F)c5)NC(=O)Cn5nc(C(F)F)c6c5C(F)(F)[C@@H]5C[C@H]65)nc5nc(C6CCC(F)(F)CC6)cc(CF)c5c4=O)c32)CC(C)(C)O1` (atropisomer, axis not shown; (P)) [Example 513, N-[(1S)-1-[(3P)-3-{4-chloro-3-methanesulfonamido-1-[2-(2,2,6,6-tetramethylmorpholin-4-yl)ethyl]-1H-indazol-7-yl}-7-(4,4-difluorocyclohexyl)-5-(fluoromethyl)-4-oxo-3H,4H-pyrido[2,3-d]pyrimidin-2-yl]-2-(3,5-difluorophenyl)ethyl]-2-[(2S,4R)-9-(difluoromethyl)-5,5-difluoro-7,8-diazatricyclo[4.3.0.0^2,^4]nona-1(6),8-dien-7-yl]acetamide] are 0.017 nM and over 20 nM.
Taken in the same sequence, the figures for `Cc1cc(C2CCC(F)(F)CC2)nc2nc([C@H](Cc3cc(F)cc(F)c3)NC(=O)Cn3nc(C(F)F)c4c3C(F)(F)[C@@H]3C[C@H]43)n(-c3ccc(Cl)c4c(NS(C)(=O)=O)nn(CCN5CCCC(F)(F)CC5)c34)c(=O)c12` (atropisomer, axis not shown; (P)) [Example 15, N-[(1S)-1-[(3P)-3-{4-chloro-1-[2-(4,4-difluoroazepan-1-yl)ethyl]-3-methanesulfonamido-1H-indazol-7-yl}-7-(4,4-difluorocyclohexyl)-5-methyl-4-oxo-3H,4H-pyrido[2,3-d]pyrimidin-2-yl]-2-(3,5-difluorophenyl)ethyl]-2-[(2S,4R)-9-(difluoromethyl)-5,5-difluoro-7,8-diazatricyclo[4.3.0.0^2,^4]nona-1(6),8-dien-7-yl]acetamide] were 0.01 nM and over 50 nM.
The corresponding values for `Cc1cc(C2CCC(F)(F)CC2)nc2nc([C@H](Cc3cc(F)cc(F)c3)NC(=O)Cn3nc(C4CC4)c4c3C[C@@H]3C[C@H]43)n(-c3ccc(Cl)c4c(NS(C)(=O)=O)nn(CCN5C[C@H]6C[C@@H]5CO6)c34)c(=O)c12` (atropisomer, axis not shown; (P)) [Example 9, N-[(1S)-1-[(3P)-3-(4-chloro-3-methanesulfonamido-1-{2-[(1R,4R)-2-oxa-5-azabicyclo[2.2.1]heptan-5-yl]ethyl}-1H-indazol-7-yl)-7-(4,4-difluorocyclohexyl)-5-methyl-4-oxo-3H,4H-pyrido[2,3-d]pyrimidin-2-yl]-2-(3,5-difluorophenyl)ethyl]-2-[(2S,4S)-9-cyclopropyl-7,8-diazatricyclo[4.3.0.0^2,^4]nona-1(6),8-dien-7-yl]acetamide] are 0.009 nM and over 50 nM.
